Laboratory results from paper PMC10359276, “Involvement of skin TRPV3 in temperature detection regulated by TMEM79 in mice” (Nature Communications, 2023).

Molecular target: TRPV3 (mTRPV3) (Mus musculus, UniProt Q8K424)
Test: cell-based

Chain of TRPV3 (mTRPV3) (Q8K424 whole entry): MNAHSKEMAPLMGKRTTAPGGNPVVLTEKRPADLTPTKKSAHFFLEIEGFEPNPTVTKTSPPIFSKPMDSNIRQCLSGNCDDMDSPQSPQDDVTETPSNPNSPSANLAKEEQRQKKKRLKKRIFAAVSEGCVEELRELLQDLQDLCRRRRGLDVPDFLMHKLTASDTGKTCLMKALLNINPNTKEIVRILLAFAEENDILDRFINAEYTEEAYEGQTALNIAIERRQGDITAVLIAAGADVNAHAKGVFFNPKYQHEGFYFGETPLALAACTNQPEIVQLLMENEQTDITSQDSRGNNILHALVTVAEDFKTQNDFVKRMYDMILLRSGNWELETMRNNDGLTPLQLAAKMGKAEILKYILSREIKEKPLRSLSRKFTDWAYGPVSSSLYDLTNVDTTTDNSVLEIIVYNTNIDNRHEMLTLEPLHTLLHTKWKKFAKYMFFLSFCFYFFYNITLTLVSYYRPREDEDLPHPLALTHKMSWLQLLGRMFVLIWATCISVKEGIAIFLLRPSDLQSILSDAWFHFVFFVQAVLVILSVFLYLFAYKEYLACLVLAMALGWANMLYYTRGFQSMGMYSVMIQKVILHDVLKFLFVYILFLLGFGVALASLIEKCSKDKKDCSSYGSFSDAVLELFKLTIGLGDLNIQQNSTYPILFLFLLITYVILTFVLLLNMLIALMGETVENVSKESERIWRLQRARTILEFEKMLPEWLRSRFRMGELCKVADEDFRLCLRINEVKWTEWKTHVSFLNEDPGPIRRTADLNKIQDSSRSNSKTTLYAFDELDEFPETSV

EC50: 57.4 ± 3.2 µM
Structure (SMILES): NCCOB(c1ccccc1)c1ccccc1 [2-APB]
